Assay [1] has as its target T1, Histamine H3 receptor (Cavia porcellus, UniProt Q9JI35). The assay can be described thus: Antagonistic activity for Histamine H3 receptor binding in guinea pig.
The target in assay [2] is T1, Histamine H3 receptor. The assay can be described thus: Antagonistic activity for Histamine H3 receptor on electrically evoked guinea-pig ileum contraction. The format is functional, tissue-based.

pKi: −log10 of the molar value.

T1 sequence (Q9JI35 whole entry): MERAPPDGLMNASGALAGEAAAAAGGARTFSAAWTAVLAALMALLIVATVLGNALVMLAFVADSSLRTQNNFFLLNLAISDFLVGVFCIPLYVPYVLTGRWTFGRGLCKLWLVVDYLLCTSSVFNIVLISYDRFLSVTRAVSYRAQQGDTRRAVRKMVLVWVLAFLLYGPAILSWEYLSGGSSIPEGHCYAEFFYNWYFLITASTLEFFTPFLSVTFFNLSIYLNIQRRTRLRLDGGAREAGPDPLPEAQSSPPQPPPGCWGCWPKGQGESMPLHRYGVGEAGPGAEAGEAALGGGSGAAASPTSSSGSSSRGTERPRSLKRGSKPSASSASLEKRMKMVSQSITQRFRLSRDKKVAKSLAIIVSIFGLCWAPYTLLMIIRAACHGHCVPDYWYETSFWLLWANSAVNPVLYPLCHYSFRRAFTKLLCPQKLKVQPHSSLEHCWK

What is called pKi is the negative decadic logarithm of the Ki, by convention in mol/L. Low values mean a large Ki, high ones a small Ki. `CC(C)(C)OC(=O)N/C(=N\CCCc1c[nH]cn1)NCc1ccc(I)cc1`: the pKi on Histamine H3 receptor [1] was 7.92; on Histamine H3 receptor [2] it was 7.90. For `N=C(NCCCc1c[nH]cn1)NCc1ccc(I)cc1`, in that order: 8.80 and 8.80.

With `O=C(N/C(=N/CC1CCCCC1)NCCCc1c[nH]cn1)OCc1ccccc1`, the pKi was 7.89 on Histamine H3 receptor [1] and 7.90 on Histamine H3 receptor [2].

On to `N=C(NCCCc1c[nH]cn1)NCC1CCCCC1`, for which the pKi at Histamine H3 receptor [1] is 9.13; at Histamine H3 receptor [2] it was 9.10. For `N=C(NCCCCc1c[nH]cn1)NC1CCCCC1`, in that order: 8.30 and 8.30. Consider `CC(C)(C)OC(=O)N/C(=N/CC1CCCCC1)NCCCc1c[nH]cn1`, for which the pKi on Histamine H3 receptor [1] was 8.02; on Histamine H3 receptor [2], 8.00. The matching figures for `N=C(NCCc1ccccc1)NCCc1cnc[nH]1`: 6.96 and 7.00.

`CCOC(=O)N/C(=N/CC1CCCCC1)NCCCc1c[nH]cn1`: the pKi was 7.44 at Histamine H3 receptor [1] and 7.40 on Histamine H3 receptor [2]. The matching figures for `CC(C)(C)OC(=O)N/C(=N/C1CCCCC1)NCCCCc1c[nH]cn1`: 8.15 and 8.20. `S=C(NC1CCCCC1)N1CCC(c2cnc[nH]2)CC1` [THIOPERAMIDE] showed a pKi on Histamine H3 receptor [2] of 8.40. Regarding `N#CN=C(NCCCc1cnc[nH]1)NCC1CCCCC1`, the pKi on Histamine H3 receptor [1] is 7.66; at Histamine H3 receptor [2], 7.70.

These data come from ChEMBL document CHEMBL1151603, “Unsymmetrically substituted guanidines as potent histamine H3-receptor antagonists” (Bioorg Med Chem Lett, 1994).
